Laboratory results: patent US9987294B2, “Mitochondria-targeted anti-tumor agents” (University of Massachusetts, priority 2007, dated 2018)
Entries after “also recorded” stand apart in the source; their conditions may differ. Where a name gives a salt, the structure may show the parent alone. Where no end group is shown, it is not given here. [ ]: non-standard residue; d: D form.

Tests used:
[1] = test system: lung adenocarcinoma H460 cells; assay: Cell viability by MTT, H460; format: cell-based, human; settings: 3 hour exposure
Procedure: (§1) Modulation of cell viability was determined by MTT (Kang et al., “Regulation of tumor cell mitochondrial homeostasis by an organelle-specific Hsp90 chaperone network,” Cell, 131:257-270 (2007)). For determination of apoptosis, cells were analyzed for caspase activity (DEVDase activity) and plasma membrane integrity (propidium iodide) using CaspaTag (Intergen, Burlington, Mass.), by multiparametric flow cytometry (Kang et al., “Regulation of tumor cell mitochondrial homeostasis by an organelle-specific Hsp90 chaperone network,” Cell, 131:257-270 (2007)).

[2] = test system: H460 lung adenocarcinoma xenograft tumors; assay: Xenograft tumor growth, H460; format: in vivo, mice; settings: i.p.; G4 and 17-AAG 2-3 mg/kg twice daily, G1 30-50 mg/Kg daily, TPP 10 mg/Kg daily
Procedure: To create the models used in this example, HL60 (10×10^6) or H460 (4×10^6) cells suspended in sterile PBS (200 μl) were injected subcutaneously into both flanks of 10 week-old CB17 SCID/beige (Taconic Farms) immunocompromised female mice. Alternatively, MDA-MB-231 cells (5×10^6) suspended in 200 μl of 50% Matrigel (BD Biosciences) were used for subcutaneous injection in CB17 SCID/beige mice. When superficial tumors reached volumes of 100-150 mm^3, animals were randomized in two groups (2 tumors/mouse, 3 animals/group), and treated with vehicle (DMSO) or Gamitrinib dissolved in 20% Cremophor EL (Sigma) in PBS by intraperitoneal (i.p.) injection. Gamitrinib-G4 was used as sterile i.p. injections with the following schedules: HL60 xenografts, 2 mg/Kg twice daily; H460 xenografts, 2 mg/kg twice daily for d 0, 2.5 mg/kg twice daily for d 1, 3.0 mg/kg twice daily for the duration of treatment; MDA-MB-231 xenografts, 2 mg/Kg twice daily for d 0-2, 2.5 mg/Kg twice daily for d 3-5, and 3 mg/Kg twice daily throughout the rest of the treatment. 17-AAG was dissolved in 20% Cremophor EL and used as systemic i.p. injections with the same dose-escalating regimen as Gamitrinib-G4 in H460 xenograft studies. Gamitrinib-G1 was used with following schedules: 30 mg/Kg daily (d 0-2), and 50 mg/Kg daily for the rest of treatment. Gamitrinib-TPP was used as i.p. injections at 10 mg/Kg daily throughout the duration of the experiment. Tumor measurements were taken daily with a caliper, and tumor volume was calculated with the formula ([length in millimeters]×[width in millimeters]^2)/2. Mice in the various treatment groups were weighed at the beginning and at the end of each experiment.

[3] = test system: normal human fibroblast cell types (WS-1, HGF, HFF); assay: Cell viability by MTT, normal human fibroblast cell types; settings: concentrations comparable to those killing tumor cells
Procedure: Changes in protein expression in the various experiments of siRNA targeting were assessed by Western blotting. For analysis of TRAP-1-directed cytoprotection, primary nontransformed human fibroblasts HFF and WS-1 were transfected with control pcDNA3 or TRAP-1 cDNA by lipofectamine for 24 hours, exposed to increasing concentrations (0-1 μM) of the cell death stimulus staurosporine (STS), and analyzed for cell viability after additional 24 hours incubation by MTT. For analysis of apoptosis, p53+/+ or p53−/−HCT116 cells were treated with control or ANT-GA (100 μM), and analyzed for DEVDase activity (CaspaTag) and propidium iodide staining by simultaneous multiparametric flow cytometry, as described (Dohi et al., J. Clin. Invest. 114(8):1117-27, (2004); Plescia et al., Cancer Cell, 7:457-468, (2005)).

[4] = test system: TRAP-1 and Hsp90; assay: Fractionation of Raji mitochondrial extracts over Shepherdin-Sepharose or scrambled peptidomimetic-Sepharose; format: binding, human; settings: coupled to Sepharose beads, Western blotting
[5] = test system: Ras-transformed NIH3T3 mitochondria; assay: Mitochondrial membrane potential of TMRM-loaded isolated mitochondria; format: biochemical
Procedure: Raji cells were treated with Shepherdin or control scrambled peptidomimetic (100 μM) or 17-AAG (5 μM), loaded with the mitochondrial membrane potential-sensitive fluorescent dye JC-1, and analyzed for changes in green/red fluorescence ratio by flow cytometry. For experiments in a cell-free system, purified mitochondria isolated from primary normal cells, various tumor cells types, or normal mouse organs were suspended in SB buffer. […] For these experiments, TMRM-loaded mitochondria in SB buffer were allowed to reach stable fluorescence, which was set as fully polarized state (maximum membrane potential). The fluorescence intensity after treatment with 2 mM CaCl2 was set as minimum membrane potential (fully depolarized state). Changes in fluorescence intensity after each treatment were plotted as a ratio between maximum and minimum membrane potential.

[6] = test system: isolated tumor mitochondria; assay: Inner membrane potential of TMRM-loaded tumor mitochondria; format: biochemical
Procedure: (§2) The fluorescence intensity after treatment with 2 mM CaCl2 corresponded to a fully depolarized state. Alternatively, H460 cells were labeled with the fluorescent dye JC-1 (Molecular Probes), and analyzed for changes in red/green (F1-2/F1-1) fluorescence ratio after treatment with the various agents, by multiparametric flow cytometry. Cytochrome c content in pellets or supernatants of drug-treated isolated mitochondria was determined by Western blotting.

[7] = test system: tumor mitochondria; assay: Cytochrome c release from drug-treated isolated tumor mitochondria; format: biochemical; settings: 3 hours (FIG. 16D)
Procedure: Tumor cell types were treated with controls or the various Hsp90 antagonists, and cytosolic extracts were harvested at increasing time intervals between 5-30 minutes and analyzed by Western blotting. For experiments in a cell-free system, purified mitochondria (20 μg) were suspended in 500 μl of SB buffer (0.2 M sucrose, 10 mM Tris-MOPS, pH 7.4, 5 mM succinate, 1 mM sodium phosphate, 10 μM EGTA-Tris, and 2 μM rotenone). […] At the end of each incubation reaction, mitochondria and supernatants were separated by centrifugation at 6,000×g for 10 minutes, and analyzed by Western blotting.
as §2

[8] = test system: breast adenocarcinoma SKBr3 cells; assay: Metabolic activity by MTT, SKBr3; format: cell-based; settings: 10 μM; by 48 hours and throughout a 96-hours interval
Procedure: as §1

For `CO[C@H]1/C=C\C=C(/C)C(=O)NC2=CC(=O)C(NCCCNC(=O)CCCN3C(=O)CC(SC[C@H]4CCN5CC[C@H](CO[Si](c6ccccc6)(c6ccccc6)C(C)(C)C)N=C5N4)C3=O)=C(C[C@@H](C)C[C@H](OC)[C@H](O)[C@@H](C)/C=C(\C)[C@@H]1OC(N)=O)C2=O` (stereo partly drawn) [Gamitrinib-G1, (4E,6Z,8S,9S,10E,12S,13R,14S,16R)-19-(3-(4-(3-(((2R,8R)-8-((tert-butyldiphenylsilyloxy)methyl)-2,3,4,6,7,8-hexahydro-1H-pyrimido[1,2-a]pyrimidin-2-yl)methylthio)-2,5-dioxopyrrolidin-1-yl)butanamido)propylamino)-13-hydroxy-8,14-dimethoxy-4,10,12,16-tetramethyl-3,20,22-trioxo-2-azabicyclo[16.3.1]docosa-1(21),4,6,10,18-pentaen-9-yl carbamate, hexafluorophosphate salt], the cell viability [1] was “had no effect” and the tumor growth [2] was “also inhibited lung cancer growth in vivo”.
For `COC1=C2C[C@@H](C)C[C@H](OC)[C@H](O)[C@@H](C)/C=C(\C)[C@H](OC(N)=O)[C@@H](OC)/C=C\C=C(/C)C(=O)NC(=CC1=O)C2=O` [GA, geldanamycin], the “viability of normal human fibroblast cell types” value [3] was “none of the compounds affected the viability of various normal human fibroblast cell types”.
In the case of “Sheph: Shepherdin lacking the Antennapedia cell-penetrating sequence ([dL][dF][dA][dC]G[dS][dS][dH][dK])”, the “association of Hsp90 and TRAP-1 with immobilized peptidomimetic” value [4] is reported as “specific elution of both TRAP-1 and Hsp90; also recorded: Hsp90 and TRAP-1 are bound by Shepherdin-Sepharose” and the “membrane potential of mitochondria” value [5] is reported as “induces loss of mitochondrial membrane potential in transformed cells”.
In the case of `CO[C@H]1/C=C\C=C(/C)C(=O)NC2=CC(=O)C(NCCN(C)C)=C(C[C@@H](C)C[C@H](OC)[C@H](O)[C@@H](C)/C=C(\C)[C@@H]1OC(N)=O)C2=O` [DMAG, 17-(dimethylaminoethylamino)-17-demethoxygeldanamycin], the “mitochondrial inner membrane potential” value [6] is reported as “did not affect mitochondrial membrane potential”.
`C=CCNc1c(O)cc2c(O)c1C[C@@H](C)C[C@H](OC)[C@H](O)[C@@H](C)/C=C(\C)[C@H](OC(N)=O)[C@@H](OC)/C=C\C=C(/C)C(=O)N2` [IPI-504] was tested, and the “cytochrome c release from mitochondria” value [7] was “had no effect on cytochrome c release”.
For `COc1c(C)cnc(Cn2cnc3c(Cl)nc(N)nc32)c1C` [BIIB021], the “cytochrome c release from mitochondria” value [7] was “had no effect on cytochrome c release”.
With `CO[C@H]1/C=C\C=C(/C)C(=O)NC2=CC(=O)C(NCCCNC(=O)CCCN3C(=O)CC(SC[C@H]4CCN5CC[C@H](CSC[C@H]6CCN7CC[C@H](CO[Si](c8ccccc8)(c8ccccc8)C(C)(C)C)N=C7N6)N=C5N4)C3=O)=C(C[C@@H](C)C[C@H](OC)[C@H](O)[C@@H](C)/C=C(\C)[C@@H]1OC(N)=O)C2=O` (some centres unmarked) [Gamitrinib-G2] the cell viability [1] was “had intermediate activity”.
With `CO[C@H]1/C=C\C=C(/C)C(=O)NC2=CC(=O)C(NCCCNC(=O)CCCN3C(=O)CC(SC[C@H]4CCN5CC[C@H](CSC[C@H]6CCN7CC[C@H](CSC[C@H]8CCN9CC[C@H](CO[Si](c%10ccccc%10)(c%10ccccc%10)C(C)(C)C)N=C9N8)N=C7N6)N=C5N4)C3=O)=C(C[C@@H](C)C[C@H](OC)[C@H](O)[C@@H](C)/C=C(\C)[C@@H]1OC(N)=O)C2=O.F[P-](F)(F)(F)(F)F.F[P-](F)(F)(F)(F)F.F[P-](F)(F)(F)(F)F` (some centres unmarked) [Gamitrinib-G3] the cell viability [1] was “complete loss of cell viability” and the IC50 ([1]; read-out: IC50, loss of cell viability) was about 0.5 µM.
With `CO[C@H]1/C=C\C=C(/C)C(=O)NC2=CC(=O)C(NCCCCCC[P+](c3ccccc3)(c3ccccc3)c3ccccc3)=C(C[C@@H](C)C[C@H](OC)[C@H](O)[C@@H](C)/C=C(\C)[C@@H]1OC(N)=O)C2=O` [Gamitrinib-TPP, (4E,6Z,8S,9S,10E,12S,13R,14S,16R)-19-(6-(triphenylphosphonio)hexylamino)-13-hydroxy-8,14-dimethoxy-4,10,12,16-tetramethyl-3,20,22-trioxo-2-azabicyclo[16.3.1]docosa-1(21),4,6,10,18-pentaen-9-yl carbamate hexafluorophosphate] the “mitochondrial inner membrane potential” value [6] was “promptly depolarized tumor mitochondria”, the cell viability [1] was “had intermediate activity” and the metabolic activity [8] was “comparably reduced metabolic activity”. For the same compound, the tumor growth [2] was “also inhibited lung cancer growth in vivo”.
For `CC[C@H](C)[C@H](NC(=O)[C@H](CCCCN)NC(=O)[C@@H](NC(=O)[C@H](CCC(N)=O)NC(=O)[C@@H](N)CCCNC(=N)N)[C@@H](C)CC)C(=O)N[C@@H](Cc1c[nH]c2ccccc12)C(=O)N[C@@H](Cc1ccccc1)C(=O)N[C@@H](CCC(N)=O)C(=O)N[C@@H](CC(N)=O)C(=O)N[C@@H](CCCNC(=N)N)C(=O)N[C@@H](CCCNC(=N)N)C(=O)N[C@@H](CCSC)C(=O)N[C@@H](CCCCN)C(=O)N[C@@H](Cc1c[nH]c2ccccc12)C(=O)N[C@@H](CCCCN)C(=O)N[C@@H](CCCCN)C(=O)N[C@@H](CSC1CC(=O)N(CCCC(=O)NCCCNC2=C3C[C@@H](C)C[C@H](OC)[C@H](O)[C@@H](C)/C=C(\C)[C@H](OC(N)=O)[C@@H](OC)/C=C\C=C(/C)C(=O)NC(=CC2=O)C3=O)C1=O)C(N)=O` (some centres unmarked) [ANT-GA], the “viability of normal human fibroblast cell types” value [3] was “none of the compounds affected the viability of various normal human fibroblast cell types”.
In the case of `CCNC(=O)c1noc(-c2cc(C(C)C)c(O)cc2O)c1-c1ccc(CN2CCOCC2)cc1` [NVP-AUY922], the “cytochrome c release from mitochondria” value [7] is reported as “had no effect on cytochrome c release”.
